{"source": "patent US20120122870A1", "about": "“Treatment Of Ischemia-Reperfusion Injury” (MUSC FOUNDATION FOR RESEARCH DEVELOPMENT, priority 2009, published 2012)", "key": {"[1]": {"tested_on": "kidney ischemia-reperfusion in C57/Bl6 mice", "assay": "Ischemia-reperfusion of the kidney (mild model), BUN and creatinine", "assay_type": "in vivo", "details": "50 mg/kg oral gavage", "description": "ABC294640 reduces kidney damage following ischemia-reperfusion. Male C57/Bl6 mice (approximately 24 g) were first dosed with ABC294640 (50 mg/kg in 0.1 mL by oral gavage) or vehicle (0.1 mL in 0.375% Tween 80 in Phosphate-Buffered Saline), immediately followed by intraperitoneal injection of ketamine/xylazine for anesthesia. The procedure was performed on a heated surface using homeothermic pads to ensure the maintenance of animal body temperature. A midline incision was made and the two renal pedicles were located and clamped for 22 minutes or 25 minutes as indicated. Total blockage of the renal pedicle and thus artery was confirmed after several minutes as the kidney were seen to be dark red to purple in color, assuring correct clamp placement. […] One milliliter of pre-warmed (37° C.) sterile saline was instilled into the peritoneum at the time of closing using sutures for musculature and wound clips for the skin incision. Animals were maintained on homeothermic pads until awakening from anesthesia and post-operatively assessed for health.\nLevels of blood urea nitrogen (BUN) were determined as an indicator of renal function. […] Therefore, the SK inhibitor substantially improves kidney function that persists for at least 3 days after drug administration.\nABC294640 reduces kidney damage following ischemia-reperfusion. Kidney ischemia-reperfusion was repeated as in Example 1, except that the duration of bilateral pedicle clamping was 25 minutes and animals were sacrificed 24 hours after surgery.\nIschemia-reperfusion of the kidney (mild model): Male C57/Bl6 mice (approximately 24 g) were first dosed with ABC294640 (50 mg/kg in 0.1 ml by oral gavage) or vehicle (0.1 ml in 0.375% Tween 80 in Phosphate-Buffered Saline), immediately followed by intraperitoneal injection of ketamine/xylazine for anesthesia. The procedure was performed on a heated surface using homeothermic pads to ensure the maintenance of animal body temperature. […] Animals were maintained on homethermic pads until awakening from anesthesia and post-operatively assessed for health."}, "[2]": {"tested_on": "hepatic warm IR in C57BL/6 mice", "assay": "Liver necrosis (H+E, image analysis) after hepatic warm IR", "assay_type": "in vivo", "description": "Warm IR upregulates SK in the liver. IR injury to the liver occurs in LT. Since SK is associated with inflammatory processes, we investigated whether IR affects SK expression in the liver. Male C57BL/6 mice (8-9 weeks) were gavaged with ABC294640 (ABC, 50 mg/kg) or an equal volume of vehicle (0.375% Tween-80 in phosphate buffer) 1 h prior to surgery. Under ether anesthesia, hepatic ischemia was induced by clamping the hepatic artery and portal vein to the upper three lobes of the liver (i.e., about 70% of total liver). One hour later, the ischemic liver was reperfused by opening the vascular clamp. Livers were collected 6 h later under pentobarbital anesthesia (80 mg/kg, i.p.) and SK was detected immunohistochemically. […] SK expression increased markedly after hepatic IR (FIG. 9 middle). Upregulation of SK occurred most overtly in hepatocytes in the midzonal regions of the liver lobule.\nABC294640 prevents hepatic warm IR-induced cell death. SK increased after hepatic IR, therefore, we investigated whether ABC294640 protects against hepatic IR injury. […] Necrotic areas became panlobular after 1 h-ischemia plus 6 h of reperfusion (FIG. 10, middle). Necrotic area, quantified by computerized image analysis of 10 random fields per slide, accounted for 68% of the liver tissue (FIG. 11A). […] Hepatic apoptosis was evaluated by terminal deoxylnucleotidyl transferase-mediated deoxyuridine triphosphate biotin nick end labeling (TUNEL) (FIG. 11B). […]\nHistology: Under pentobarbital anesthesia (50 mg/kg, i.p.), livers were rinsed with 10 ml normal saline and perfusion-fixed with 4% paraformaldehyde in phosphate buffer, embedded in paraffin, and sections were stained with hematoxylin-eosin (H+E). Necrotic areas in sections were quantified by image analysis using an Image-1/AT image acquisition and analysis system (Universal Imaging Corp., West Chester, Pa.) incorporating an Axioskop 50 microscope (Carl Zeiss, Inc., Thornwood, NY) and a 10× objective lens."}, "[3]": {"details": "25 minutes bilateral clamping, 24 hours after reperfusion"}}, "note": "Entries after “also recorded” stand apart in the source; their conditions may differ.", "data": [{"smiles": "O=C(NCc1ccncc1)C12CC3CC(C1)CC(c1ccc(Cl)cc1)(C3)C2", "note": "[ABC294640, 3-(4-chlorophenyl)-N-(pyridin-4-ylmethyl)adamantane-1-carboxamide]", "values": [{"measurement": "BUN levels vs vehicle", "setting": "[1]; [3]", "value": "significantly lower; also recorded: substantially lower"}, {"measurement": "creatinine levels vs vehicle", "setting": "[1]; [3]", "value": "significantly lower; also recorded: substantially lower"}, {"measurement": "BUN levels vs vehicle", "setting": "[1]; bilateral renal pedicle clamping, 72 hours after reperfusion", "value": "significantly lower"}, {"measurement": "necrotic area of liver tissue", "setting": "[2]; 50 mg/kg, 1 h-ischemia plus 6 h of reperfusion, image analysis of 10 random fields", "value": "~7", "unit": "%"}, {"measurement": "necrosis / cell death after hepatic IR (in words)", "setting": "[2]; 1 h-ischemia plus 6 h-reperfusion", "value": "attenuates necrosis; also recorded: prevents cell death"}, {"measurement": "attenuation of necrosis compared to vehicle-treated livers", "setting": "[2]; 1 h-ischemia plus 6 h of reperfusion", "value": "~90", "unit": "%"}]}]}
